Test results reported in patent US10640506B2, “Cyclobutyl substituted pyrrolopyridine and pyrrolopyrimidines derivatives as JAK inhibitors” (Incyte Corporation, priority 2010, dated 2020).
Like-named read-outs stand apart in the source and are kept apart here.

What was measured:
[1] = biological target: human JAK1 (a.a. 837-1142) (Homo sapiens, UniProt P23458); assay: In vitro JAK kinase assay (HTRF, phosphorylation of biotinylated peptide), JAK1; type: biochemical
Protocol: Compounds herein were tested for inhibitory activity of JAK targets according to the following in vitro assay described in Park et al., Analytical Biochemistry 1999, 269, 94-104. The catalytic domains of human JAK1 (a.a. 837-1142) and JAK2 (a.a. 828-1132) with an N-terminal His tag were expressed using baculovirus in insect cells and purified. The catalytic activity of JAK1 and JAK2 was assayed by measuring the phosphorylation of a biotinylated peptide. The phosphorylated peptide was detected by homogenous time resolved fluorescence (HTRF). […] Reactions were carried out at room temperature for 1 hour and then stopped with 20 μL 45 mM EDTA, 300 nM SA-APC, 6 nM Eu-Py20 in assay buffer (Perkin Elmer, Boston, Mass.). Binding to the Europium labeled antibody took place for 40 minutes and HTRF signal was measured on a Fusion plate reader (Perkin Elmer, Boston, Mass.). […] Data is indicated as ranges, wherein “+” is less than 10 nM; “++” is 10 nM to 25 nM; “+++” is greater than 25 nM to 100 nM; and “++++” is greater than 100 nM. Greater than 25 nM to 100 nM specifies a range with a lower endpoint “at greater than 25 nM” and an upper endpoint at 100 nM.

JAK2 (a.a. 828-1132) = biological target: T1, JAK2 (a.a. 828-1132) (Homo sapiens, UniProt O60674); assay: In vitro JAK kinase assay (HTRF, phosphorylation of biotinylated peptide), JAK2; type: biochemical
T1 construct: JAK2 (a.a. 828-1132); His tag (N)
Protocol: Compounds herein were tested for inhibitory activity of JAK targets according to the following in vitro assay described in Park et al., Analytical Biochemistry 1999, 269, 94-104. The catalytic domains of human JAK1 (a.a. 837-1142) and JAK2 (a.a. 828-1132) with an N-terminal His tag were expressed using baculovirus in insect cells and purified. The catalytic activity of JAK1 and JAK2 was assayed by measuring the phosphorylation of a biotinylated peptide. The phosphorylated peptide was detected by homogenous time resolved fluorescence (HTRF). […] Reactions were carried out at room temperature for 1 hour and then stopped with 20 μL 45 mM EDTA, 300 nM SA-APC, 6 nM Eu-Py20 in assay buffer (Perkin Elmer, Boston, Mass.). Binding to the Europium labeled antibody took place for 40 minutes and HTRF signal was measured on a Fusion plate reader (Perkin Elmer, Boston, Mass.). See Tables A-F for data related to compounds of the Examples (at 1 mM). Data is indicated as ranges, wherein “+” is less than 10 nM; “++” is 10 nM to 25 nM; “+++” is greater than 25 nM to 100 nM; and “++++” is greater than 100 nM. Greater than 25 nM to 100 nM specifies a range with a lower endpoint “at greater than 25 nM” and an upper endpoint at 100 nM.

[2] = read-out: JAK1 IC50 (nM) at 1 mM, Table E, 1 mM ATP

T1 sequence (O60674 828-1132): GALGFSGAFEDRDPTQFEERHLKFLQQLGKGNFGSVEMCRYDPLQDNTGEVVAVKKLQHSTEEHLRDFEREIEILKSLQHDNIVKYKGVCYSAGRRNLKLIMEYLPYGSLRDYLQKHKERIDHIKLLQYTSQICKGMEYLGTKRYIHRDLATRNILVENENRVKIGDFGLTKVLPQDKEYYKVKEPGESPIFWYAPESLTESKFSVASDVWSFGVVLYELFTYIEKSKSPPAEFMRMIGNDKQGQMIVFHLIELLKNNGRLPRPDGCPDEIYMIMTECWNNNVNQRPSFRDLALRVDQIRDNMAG
Sequence of human JAK1 (a.a. 837-1142) (P23458 849-1154): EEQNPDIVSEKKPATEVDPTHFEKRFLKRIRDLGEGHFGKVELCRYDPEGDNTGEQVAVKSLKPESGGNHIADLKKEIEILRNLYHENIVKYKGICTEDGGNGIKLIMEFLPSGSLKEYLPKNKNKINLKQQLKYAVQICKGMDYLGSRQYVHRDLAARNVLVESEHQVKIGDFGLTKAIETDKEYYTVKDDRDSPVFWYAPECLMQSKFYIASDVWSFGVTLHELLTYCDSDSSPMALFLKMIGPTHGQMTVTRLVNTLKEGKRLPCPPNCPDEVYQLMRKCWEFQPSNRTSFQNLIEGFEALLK

| Compound | IC50 ([1]; Table F, 1 mM ATP) [nM] | IC50 (JAK2 (a.a. 828-1132); Table F, 1 mM ATP) [nM] | also measured |
| --- | --- | --- | --- |
| 3-[(4-{trans-3-(cyanomethyl)-3-[4-(7H-pyrrolo[2,3-d]pyrimidin-4-yl)-1H-pyrazol-1-yl]cyclobutyl}piperazin-1-yl)methyl]-5-[(dimethylamino)methyl]benzonitrile [Example 43] | – | – | IC50 ([1]; read-out: JAK1 IC50 (nM) at 1 mM ATP, Table F): 25 to 100 nM; IC50 (JAK2 (a.a. 828-1132); read-out: JAK2 IC50 (nM) at 1 mM ATP, Table F): > 100 nM |
| N#CC[C@]1(n2cc(-c3ncnc4[nH]ccc34)cn2)C[C@H](N2CCN(C(=O)N[C@H]3CCC[C@@H]3O)CC2)C1 (racemic) [Example 88, 4-{trans-3-(cyanomethyl)-3-[4-(7H-pyrrolo[2,3-d]pyrimidin-4-yl)-1H-pyrazol-1-yl]cyclobutyl}-N-(2-hydroxycyclopentyl)piperazine-1-carboxamide] | < 10 | 25 to 100 | – |
| N#CC[C@]1(n2cc(-c3ncnc4[nH]ccc34)cn2)C[C@H](N2CCN(C(=O)N[C@H]3CCC[C@H]3O)CC2)C1 (single isomer, unassigned) [Example 89] | < 10 | 25 to 100 | – |
| COCc1cc(OC2CCN([C@H]3C[C@@](CC#N)(n4cc(-c5ncnc6[nH]ccc56)cn4)C3)CC2)nc(C(F)(F)F)c1 (single isomer, unassigned) [Example 121, {cis-3-(4-{[4-(methoxymethyl)-6-(trifluoromethyl)pyridin-2-yl]oxy}piperidin-1-yl)-1-[4-(7H-pyrrolo[2,3-d]pyrimidin-4-yl)-1H-pyrazol-1-yl]cyclobutyl}acetonitrile] | 25 to 100 | > 100 | – |
| COCc1cc(OC2CCN([C@H]3C[C@](CC#N)(n4cc(-c5ncnc6[nH]ccc56)cn4)C3)CC2)nc(C(F)(F)F)c1 (single isomer, unassigned) [Example 122, {trans-3-(4-{[4-(methoxymethyl)-6-(trifluoromethyl)pyridin-2-yl]oxy}piperidin-1-yl)-1-[4-(7H-pyrrolo[2,3-d]pyrimidin-4-yl)-1H-pyrazol-1-yl]cyclobutyl}acetonitrile] | < 10 | > 100 | – |
| N#CC[C@]1(n2cc(-c3ncnc4[nH]ccc34)cn2)C[C@H](N2CCC(Oc3cc(CO)cc(C(F)(F)F)n3)CC2)C1 (single isomer, unassigned) [Example 123, {trans-3-(4-{[4-(hydroxymethyl)-6-(trifluoromethyl)pyridin-2-yl]oxy}piperidin-1-yl)-1-[4-(7H-pyrrolo[2,3-d]pyrimidin-4-yl)-1H-pyrazol-1-yl]cyclobutyl}acetonitrile] | < 10 | > 100 | – |
| N#CC[C@]1(n2cc(-c3ncnc4[nH]ccc34)cn2)C[C@@H](N2CCC(Oc3cc(CO)cc(C(F)(F)F)n3)CC2)C1 (single isomer, unassigned) [Example 124, {cis-3-(4-{[4-(hydroxymethyl)-6-(trifluoromethyl)pyridin-2-yl]oxy}piperidin-1-yl)-1-[4-(7H-pyrrolo[2,3-d]pyrimidin-4-yl)-1H-pyrazol-1-yl]cyclobutyl}acetonitrile] | 25 to 100 | > 100 | – |
| CC(C)(O)c1cc(OC2CCN([C@H]3C[C@](CC#N)(n4cc(-c5ncnc6[nH]ccc56)cn4)C3)CC2)nc(C(F)(F)F)c1 (single isomer, unassigned) [Example 125, {trans-3-(4-{[4-(1-hydroxy-1-methylethyl)-6-(trifluoromethyl)pyridin-2-yl]oxy}piperidin-1-yl)-1-[4-(7H-pyrrolo[2,3-d]pyrimidin-4-yl)-1H-pyrazol-1-yl]cyclobutyl}acetonitrile] | < 10 | 25 to 100 | – |
| CC(C)(O)c1cc(OC2CCN([C@H]3C[C@@](CC#N)(n4cc(-c5ncnc6[nH]ccc56)cn4)C3)CC2)nc(C(F)(F)F)c1 (single isomer, unassigned) [Example 126, {cis-3-(4-{[4-(1-hydroxy-1-methylethyl)-6-(trifluoromethyl)pyridin-2-yl]oxy}piperidin-1-yl)-1-[4-(7H-pyrrolo[2,3-d]pyrimidin-4-yl)-1H-pyrazol-1-yl]cyclobutyl}acetonitrile] | 10 to 25 | > 100 | – |
| N#CC[C@]1(n2cc(-c3ncnc4[nH]ccc34)cn2)C[C@@H](N2CCC(Oc3cc(C#N)cc(C(F)(F)F)n3)CC2)C1 (single isomer, unassigned) [Example 133, 2-[(1-{cis-3-(cyanomethyl)-3-[4-(7H-pyrrolo[2,3-d]pyrimidin-4-yl)-1H-pyrazol-1-yl]cyclobutyl}piperidin-4-yl)oxy]-6-(trifluoromethyl)isonicotinonitrile] | 25 to 100 | > 100 | – |
| N#CC[C@]1(n2cc(-c3ncnc4[nH]ccc34)cn2)C[C@H](N2CCC(Oc3cc(C#N)cc(C(F)(F)F)n3)CC2)C1 (single isomer, unassigned) [Example 134, 2-1(1-{trans-3-(cyanomethyl)-3-[4-(7H-pyrrolo[2,3-d]pyrimidin-4-yl)-1H-pyrazol-1-yl]cyclobutyl}piperidin-4-yl)oxyl-6-(trifluoromethyl)isonicotinonitrile] | < 10 | > 100 | – |
| N#CC[C@]1(n2cc(-c3ncnc4[nH]ccc34)cn2)C[C@@H](N2CCC(Oc3cc(CN4CCOC4=O)cc(C(F)(F)F)n3)CC2)C1 (single isomer, unassigned) [Example 165, peak 1, {cis-3-(4-{[4-[(2-oxo-1,3-oxazolidin-3-yl)methyl]-6-(trifluoromethyl)pyridin-2-yl]oxy}piperidin-1-yl)-1-[4-(7H-pyrrolo[2,3-d]pyrimidin-4-yl)-1H-pyrazol-1-yl]cyclobutyl}acetonitrile] | 25 to 100 | > 100 | – |
| N#CC[C@]1(n2cc(-c3ncnc4[nH]ccc34)cn2)C[C@H](N2CCC(Oc3cc(CN4CCOC4=O)cc(C(F)(F)F)n3)CC2)C1 (single isomer, unassigned) [Example 165, peak 2, {trans-3-(4-{[4-[(2-oxo-1,3-oxazolidin-3-yl)methyl]-6-(trifluoromethyl)pyridin-2-yl]oxy}piperidin-1-yl)-1-[4-(7H-pyrrolo[2,3-d]pyrimidin-4-yl)-1H-pyrazol-1-yl]cyclobutyl}acetonitrile] | < 10 | 25 to 100 | – |
| CN(C)Cc1cc(F)cc(OC2CCN(C3CC(CC#N)(n4cc(-c5ncnc6[nH]ccc56)cn4)C3)CC2)c1 (single isomer, unassigned; isomer 1) [Example 40, isomer 1, {cis-3-(4-{3-[(dimethylamino)methyl]-5-fluorophenoxy}piperidin-1-yl)-1-[4-(7H-pyrrolo[2,3-d]pyrimidin-4-yl)-1H-pyrazol-1-yl]cyclobutyl}acetonitrile] | – | – | IC50 [1, 2]: < 10 nM; IC50 (JAK2 (a.a. 828-1132); Table E, 1 mM ATP, listed as 40, isomer 1, read-out: JAK2 IC50 (nM) +): 10 to 25 nM |
| C[C@H]1CCCN1Cc1cc(F)cc(OC2CCN(C3CC(CC#N)(n4cc(-c5ncnc6[nH]ccc56)cn4)C3)CC2)c1 (single isomer, unassigned; isomer 1) [Example 41, isomer 1] | – | – | IC50 [1, 2]: < 10 nM; IC50 (JAK2 (a.a. 828-1132); Table E, 1 mM ATP, listed as 41, isomer 1, read-out: JAK2 IC50 (nM) +): 10 to 25 nM |
| CN(C)Cc1cc(F)cc(OC2CCN(C3CC(CC#N)(n4cc(-c5ncnc6[nH]ccc56)cn4)C3)CC2)c1 (single isomer, unassigned; isomer 2) [Example 40, isomer 2, {trans-3-(4-{3-[(dimethylamino)methyl]-5-fluorophenoxy}piperidin-1-yl)-1-[4-(7H-pyrrolo[2,3-d]pyrimidin-4-yl)-1H-pyrazol-1-yl]cyclobutyl}acetonitrile] | – | – | IC50 [1, 2]: < 10 nM; IC50 (JAK2 (a.a. 828-1132); Table E, 1 mM ATP, listed as 40, isomer 2, read-out: JAK2 IC50 (nM) +): < 10 nM |
| C[C@H]1CCCN1Cc1cc(F)cc(OC2CCN(C3CC(CC#N)(n4cc(-c5ncnc6[nH]ccc56)cn4)C3)CC2)c1 (single isomer, unassigned; isomer 2) [Example 41, isomer 2] | – | – | IC50 [1, 2]: < 10 nM; IC50 (JAK2 (a.a. 828-1132); Table E, 1 mM ATP, listed as 41, isomer 2, read-out: JAK2 IC50 (nM) +): < 10 nM |
| CCS(=O)(=O)N1CCN([C@H]2C[C@](CC#N)(n3cc(-c4ncnc5[nH]ccc45)cn3)C2)CC1 [Example 35, {trans-3-[4-(ethylsulfonyl)piperazin-1-yl]-1-[4-(7H-pyrrolo[2,3-d]pyrimidin-4-yl)-1H-pyrazol-1-yl]cyclobutyl}acetonitrile] | – | – | IC50 (JAK2 (a.a. 828-1132); Table B, 1 mM ATP, read-out: JAK2 IC50): < 10 nM |
